Experimental data: ChEMBL document CHEMBL5512685, “Discovery of a Promising CBP/p300 Degrader XYD129 for the Treatment of Acute Myeloid Leukemia” (J Med Chem, 2024)
pIC50: −log10 of the molar value. Values belong to the compound of their own block, whether it stands above or below them. The source made the active and inactive calls. No cut-off for these calls is given here.

Key:
[1] = biological target: T1, Protein cereblon/CREB-binding protein (Homo sapiens) (UniProt Q92793+Q96SW2); assay: Binding affinity to biotinylated CRBN (40 to 442 residues) (unknown origin)/His6-fused human CBP bromodomain (R1081 to G1197 residues) assessed as ternary complex formation incubated for 1.5 hrs by Alphascreen assay; assay type: protein assay
[2] = biological target: T1, Protein cereblon/CREB-binding protein (Homo sapiens); assay: PROTAC activity at CRBN/CBP in human MOLM16 cells assessed as reduction in CBP protein level at 500 nM measured after 18 hrs by Western blot analysis; assay type: cell-based
[3] = biological target: T2, Histone acetyltransferase p300 (Homo sapiens, UniProt Q09472); assay: Inhibition of C-terminal biotinylated tetra-acetylated histone peptide H4 binding to His6-fused human p300 bromodomain (A1040 to G1161 residues) incubated for 1 hrs by HTRF assay
[4] = tested on: MV4-11; assay: Antiproliferative activity against human MV4-11 cells assessed as inhibition of cell growth incubated for 120 hrs by celltiter glo luminescence analysis; assay type: functional, cell-based; conditions: MV4-11, 120 h
[5] = biological target: T3, Protein cereblon/Histone acetyltransferase p300 (Homo sapiens) (UniProt Q09472+Q96SW2); assay: Binding affinity to biotinylated CRBN (40 to 442 residues) (unknown origin)/His6-fused human p300 bromodomain (A1040 to G1161 residues) assessed as ternary complex formation incubated for 1.5 hrs by Alphascreen assay; assay type: protein assay
[6] = Toxicity in NOD-SCID mouse xenografted with human MOLM16 cells assessed as pathological changes in liver at 30 mg/kg, ip administered once daily for 2 weeks by H and E staining based analysis; assay type: organism-based; conditions: in vivo, 336 h
[7] = biological target: T3, Protein cereblon/Histone acetyltransferase p300 (Homo sapiens); assay: PROTAC activity at CRBN/p300 in human MOLM16 cells assessed as induction of p300 degradation at 333 nM incubated for 24 hrs by Western blot analysis relative to control; assay type: cell-based
[8] = tested on: Mus musculus; assay: In vivo PROTAC activity at CRBN/p300 in NOD-SCID mouse xenografted with human MOLM16 cells assessed as reduction in p300 level in tumor at 30 mg/kg, ip administered once daily for 2 weeks and measured 1 day post last dose by Western blot analysis; assay type: functional, organism-based; conditions: time 15.0 day
[9] = biological target: T1, Protein cereblon/CREB-binding protein (Homo sapiens); assay: PROTAC activity at CRBN/CBP in human MOLM16 cells assessed as induction of CBP degradation at 500 nM by Western blot analysis; assay type: cell-based; conditions: time 0-24 hrs, TDE = time-dependent effect
[10] = tested on: KG-1; assay: Antiproliferative activity against human KG-1 cells assessed as inhibition of cell growth incubated for 72 hrs by celltiter glo luminescence analysis; assay type: functional, cell-based; conditions: KG-1, 72 h
[11] = biological target: T3, Protein cereblon/Histone acetyltransferase p300 (Homo sapiens); assay: PROTAC activity at CRBN/p300 in human MOLM16 cells assessed as reduction in p300 protein level at 500 nM pretreated with pomalidomide for 2 hrs followed by compound treatment and measured after 18 hrs by Western blot analysis; assay type: cell-based
[12] = biological target: Protein cereblon (Homo sapiens, UniProt Q96SW2); assay: Inhibition of biotinylated thalidomide binding to CRBN (40 to 442 residues) (unknown origin) incubated for 1 hrs by HTRF assay
[13] = Cytotoxicity against human HL7702 cells assessed as inhibition of cell growth incubated for 72 hrs by celltiter glo luminescence analysis; assay type: toxicity, cell-based; conditions: HL7702 (L02) cells
[14] = biological target: T1, Protein cereblon/CREB-binding protein (Homo sapiens); assay: PROTAC activity at CRBN/CBP in human MOLM16 cells assessed as induction of CBP degradation incubated for 24 hrs by Western blot analysis; assay type: cell-based; conditions: dose 0-1000 nM
[15] = biological target: T3, Protein cereblon/Histone acetyltransferase p300 (Homo sapiens); assay: PROTAC activity at CRBN/p300 in human MOLM16 cells assessed as reduction in p300 protein level at 500 nM pretreated with MG-132 for 2 hrs followed by compound treatment and measured after 18 hrs by Western blot analysis; assay type: cell-based
[16] = Antiproliferative activity against human MOLM16 cells assessed as inhibition of cell growth incubated for 72 hrs by celltiter glo luminescence analysis; assay type: functional, cell-based, MOLM-16; conditions: MOLM16, 72 h
[17] = biological target: T1, Protein cereblon/CREB-binding protein (Homo sapiens); assay: PROTAC activity at CRBN/CBP in human MOLM16 cells assessed as reduction in CBP protein level at 500 nM pretreated with MG-132 for 2 hrs followed by compound treatment and measured after 18 hrs by Western blot analysis; assay type: cell-based
[18] = biological target: T1, Protein cereblon/CREB-binding protein (Homo sapiens); assay: PROTAC activity at CRBN/CBP in human MOLM16 cells assessed as induction of CBP degradation at 333 nM incubated for 24 hrs by Western blot analysis relative to control; assay type: cell-based
[19] = Toxicity in NOD-SCID mouse xenografted with human MOLM16 cells assessed as pathological changes in kidney at 30 mg/kg, ip administered once daily for 2 weeks by H and E staining based analysis; assay type: organism-based; conditions: in vivo, 336 h
[20] = Toxicity in NOD-SCID mouse xenografted with human MOLM16 cells assessed as reduction in body weight at 30 mg/kg, ip administered once daily for 2 weeks; assay type: organism-based; conditions: in vivo, 336 h
[21] = Antitumor activity against human MOLM16 cells xenografted in NOD-SCID mouse assessed as tumor growth inhibition at 30 mg/kg, ip administered once daily for 2 weeks and measured every other day by caliper method relative to control; assay type: functional, MOLM-16; conditions: MOLM16, 336 h, read-out: TGI
[22] = Toxicity in NOD-SCID mouse xenografted with human MOLM16 cells assessed as pathological changes in lung at 30 mg/kg, ip administered once daily for 2 weeks by H and E staining based analysis; assay type: organism-based; conditions: in vivo, 336 h
[23] = Toxicity in NOD-SCID mouse xenografted with human MOLM16 cells assessed as pathological changes in heart at 30 mg/kg, ip administered once daily for 2 weeks by H and E staining based analysis; assay type: organism-based; conditions: in vivo, 336 h
[24] = biological target: T1, Protein cereblon/CREB-binding protein (Homo sapiens); assay: In vivo PROTAC activity at CRBN/CBP in NOD-SCID mouse xenografted with human MOLM16 cells assessed as reduction in CBP level in tumor at 30 mg/kg, ip administered once daily for 2 weeks and measured 1 day post last dose by Western blot analysis; assay type: functional, organism-based; conditions: time 15.0 day
[25] = biological target: T3, Protein cereblon/Histone acetyltransferase p300 (Homo sapiens); assay: PROTAC activity at CRBN/p300 in human MOLM16 cells assessed as reduction in p300 protein level at 500 nM measured after 18 hrs by Western blot analysis; assay type: cell-based
[26] = tested on: MV4-11; assay: Potency index, ratio of Y08207 IC50 to test compound IC50 for antiproliferative activity against human MV4-11 cells assessed as inhibition of cell growth incubated for 120 hrs by celltiter glo luminescence analysis; assay type: functional
[27] = biological target: T1, Protein cereblon/CREB-binding protein (Homo sapiens); assay: PROTAC activity at CRBN/CBP in human MOLM16 cells assessed as reduction in CBP protein level at 500 nM pretreated with pomalidomide for 2 hrs followed by compound treatment and measured after 18 hrs by Western blot analysis; assay type: cell-based
[28] = biological target: T3, Protein cereblon/Histone acetyltransferase p300 (Homo sapiens); assay: PROTAC activity at CRBN/p300 in human MOLM16 cells assessed as induction of p300 degradation at 500 nM by Western blot analysis; assay type: cell-based; conditions: time 0-24 hrs, TDE = time-dependent effect
[29] = Toxicity in NOD-SCID mouse xenografted with human MOLM16 cells assessed as pathological changes in spleen at 30 mg/kg, ip administered once daily for 2 weeks by H and E staining based analysis; assay type: organism-based; conditions: in vivo, 336 h
[30] = biological target: T4, CREB-binding protein (Homo sapiens, UniProt Q92793); assay: Inhibition of C-terminal biotinylated tetra-acetylated histone peptide H4 binding to His6-fused human CBP bromodomain (R1081 to G1197 residues) incubated for 1 hrs by HTRF assay
[31] = biological target: T3, Protein cereblon/Histone acetyltransferase p300 (Homo sapiens); assay: PROTAC activity at CRBN/p300 in human MOLM16 cells assessed as induction of p300 degradation incubated for 24 hrs by Western blot analysis; assay type: cell-based; conditions: dose 0-1000 nM
[32] = biological target: T4, CREB-binding protein; assay: Inhibition of CBP (unknown origin) using histone H3 (1 to 21 residues) as substrate preincubated for 15 mins followed by substrate and [3H]Ac-CoA addition and measured after 60 mins by liquid scintillation counting analysis
[33] = biological target: T2, Histone acetyltransferase p300; assay: Inhibition of p300 (unknown origin) using histone H3 (1 to 21 residues) as substrate preincubated for 15 mins followed by substrate and [3H]Ac-CoA addition and measured after 60 mins by liquid scintillation counting analysis

Activity [1]: Active
Activity [2]: Active
pIC50 [3]: 7.52
pIC50 [4]: 7.36
Activity [5]: Active
Activity [7]: 100%
Activity [9]: Tde
Activity [11]: inactive
pIC50 [12]: 6.74
Activity [14]: Dose-Dependent Effect
Activity [15]: inactive
Activity [17]: inactive
Activity [18]: 100%
Activity [24]: Active
Activity [25]: Active
Activity [27]: inactive
Activity [28]: Tde
pIC50 [30]: 7.68
Activity [31]: Dose-Dependent Effect
Compound: CC(=O)c1cc(C(=O)Nc2cc(CO)cc(-c3cnn(C)c3)c2F)c2cc(OCC(=O)NCCCCNc3cccc4c3C(=O)N(C3CCC(=O)NC3=O)C4=O)ccn12 (stereo not drawn)
Activity [6]: Non-Toxic
Activity [8]: Active
pIC50 [10]: 6.24
IC50 at 72 h [13]: > 100000 nM
pIC50 [16]: 8.15
Activity [19]: Non-Toxic
Activity [20]: Non-Toxic
inhibition in vivo at 30 mg/kg [21]: 60%
Activity [22]: Non-Toxic
Activity [23]: Non-Toxic
Ratio IC50 [26]: 140
Activity [29]: Non-Toxic

pIC50 [32]: 7.96
pIC50 [33]: 9.30
Compound: CNC(=O)Nc1ccc2c(c1)CC[C@@]21OC(=O)N(CC(=O)N2Cc3cc(F)ccc3OC[C@H]2C2CC2)C1=O
